In US20020192231A1, “Method of increasing anti-neuGc antibody levels in blood” (Immucom Inc., priority 2001, published 2002):

Legend:
[1] = test system: chicken anti-gangliosides; assay: Inhibition of purified chicken anti-gangliosides binding to pRBC, flow cytometry; details: pre-incubation with NeuGc
Description: (§1) FIG. 5. Selective inhibition of chicken anti-NeuGc and anti-gangliosides. (A) Prior to flow cytometry analysis, both antibodies were pre-incubated with increased amount of NeuGc. (B) Both antibodies were pre-incubated with increasing amount of porcine gangliosides. To further purify chicken antibodies that bind to the thyroglobulin column, we eluted the column with PBS containing NeuGc, followed by glycine-HCI, pH 2.5. The two resultant fractions are designated as anti-NeuGc and anti-gangliosides, respectively, based on detailed characterization of their binding specificities as described below. Quantitatively, there are roughly ten times more anti-NeuGc than anti-gangliosides activity in the chicken antibodies based on flow cytometry analysis (assuming there are the same amounts of binding sites for both antibodies on pRBC). Both of antibody fractions, anti-NeuGc and anti-gangliosides, derived from further purification of the post-immune IgY bind to pRBC in flow cytometry.

[2] = test system: human anti-nonαGal (anti-NeuGc); assay: Inhibition of human anti-nonαGal binding to pRBC by sialic acids, flow cytometry; details: for effect on antibody binding to pRBC: antibodies preincubated with 10 mM sialic acid
Description: FIG. 1. Flow cytometry analysis of human anti-nonαGal. The antibodies were incubated with pRBC (type O) at room temperature for 30 min. Anti-human IgG (H+L) conjugated with R-phycoerythrin (PE) was used as a second antibody. (A) The antibodies were bound to untreated (peak 1) or sialidase-treated (peak 2) pRBC. In an inhibition assay, the antibodies were preincubated with NeuAc (peak 3) or NeuGc (peak 4) prior to binding with untreated pRBC. Cells plus the secondary antibody (peak 5) was used as background controls for the flow cytometry. (B) The antibodies were pre-incubated with increasing concentrations of NeuGc (●) or NeuAc (∘) prior to flow cytometry analysis. The percentage of binding (% MFI) was plotted against sialic acid concentrations. Human anti-nonαGal was prepared by depleting anti-αGal from the total xenoreactive antibodies in the serum (31). […] On the other hand, pre-treatment of fresh pRBC with a number of other exoglycosidases (β-galactosidase, α-N-acetylgalactosaminidase and hexosaminidase) had no effect on antibody binding (data not shown). To elucidate the nature of antigens recognized by anti-nonαGal, the antibodies were preincubated with 10 mM NeuGc or NeuAc prior to the binding with pRBC.

chicken anti-NeuGc = assay: Inhibition of purified chicken anti-NeuGc binding to pRBC, flow cytometry; details: at 9.5 mM of NeuGc
Description: as §1

[3] = test system: breast cancer cell line MCF-7; assay: ECL fluorescence immunoassay on fixed MCF-7 cells; format: cell-based; details: 30 mM NeuGc
Description: More recently, we have succeeded in detecting NeuGc antigen in breast cancer cell line MCF-7 using purified chicken anti-NeuGc antibody. Cells are seeded in chambered slides under cell culture conditions. After growing upto 80%-90% confluence (approximately 2-3 days), cells are gently washed with PBS, pH 7.2, and then fixed in 300 ul methanol for 5 min at room temperature. The chambered slides are blocked with PBS containing 2% BSA prior to the incubation with purified chicken anti-NeuGc in a ECL fluorescence immunoassay. […] Its binding specificity was confirmed by inhibition with 30 mM NeuGc.

post-immune IgY = assay: Inhibition of chicken post-immune IgY binding to pRBC, flow cytometry; details: pre-incubation with 3.75 mM NeuGc
Description: FIG. 3. Flow cytometry analysis of chicken antibody raised against porcine gangliosides. The antibody sample was incubated with α-galactosidase pRBC (type O) at room temperature for 0.5 hour. Anti-chicken IgG (H+L) conjugated with FITC was used as a second antibody. Cells alone or cells plus the secondary antibody (1) were used as a background control for the flow cytometry (Becton Dickinson). Chicken antibodies (0.1 ul each) prepared from pre-immune eggs (2) and post-immune eggs (3) were analyzed by flow cytometry analysis. Post-immune antibodies were pre-incubated with 3.75 mM NeuGc (4) or 3.75 mg/ml porcine gangliosides (5) prior to the analysis. To examine the effect of ganglioside immunization and level of induced antibodies in eggs, IgY prepared from pre-immune eggs and post-immune eggs were analyzed by flow cytometry analysis using α-galactosidase-treated pRBC. […] We are collecting 20-25 eggs per hen per month.

maximal inhibition of anti-gangliosides binding [1]	inhibition of human anti-NeuGc activity by pre-incubation ([2]; anti-NeuGc purified from normal human sera)	effect on antibody binding to pRBC [2]	inhibition of antibody binding ([2]; at 1.2 mM of NeuGc)	IC50 ([2]; based on mean fluorescent intensity (MFI), read-out: I50 value (concentration that gives rise to 50% inhibition))	inhibition of anti-NeuGc binding (chicken anti-NeuGc)	inhibition of binding activity (post-immune IgY)	inhibition of antibody binding ([2]; NeuAc as high as 6 mM)	Structure (SMILES)	inhibition of anti-NeuGc binding to MCF-7 cells [3]
approximately 30%	specifically inhibited	strong inhibitory effect	Ninety	~73 µM	more than 95%	partially inhibited		O=C(CO)N[C@H]1[C@H]([C@H](O)[C@H](O)CO)OC(O)(C(=O)O)C[C@@H]1O (stereo partly shown) [NeuGc, N-glycolylneuraminic acid]	inhibition
		no effect					essentially no inhibition	CC(=O)N[C@H]1[C@H]([C@H](O)[C@H](O)CO)OC(O)(C(=O)O)C[C@@H]1O (stereo partly shown) [NeuAc, N-acetylneuraminic acid]	
